The term pKa denotes the negative logarithm of the acid dissociation constant. A higher pKa goes with a weaker acid or stronger base.

The values below come from ChEMBL document CHEMBL1151582, “The effect of pH on the solution structure of 1-pyrroline-2-carboxylic acid as revealed by NMR and electrospray mass spectroscopy” (Bioorg Med Chem Lett, 1993).

Data set [1] in a line: Acid dissociation constant of compound was determined (for carboxylic acid group). The format is ADME.
A short description of data set [2]: Acid dissociation constant of compound was determined (for pyrrolinium group). The format is ADME.

Molecules are shown by their SMILES.

Consider `O=C(O)C1=NCCC1`, for which the values for the pKa in data set [1] and in data set [2] were 1.8 and 6.2, respectively.
